Patent US20080095778A1, “Treatment Of Fungal Infections” (priority 2004, published 2008)

Tests used:
A. fumigatus = experiment: Broth microdilution (NCCLS M38-A) checkerboard assay, A. fumigatus; format: cell-based, Aspergillus fumigatus
Protocol: (§1) Stock solutions of amphotericin B (AMB, Sigma), caspofungin (Caspo), voriconazole (VOR) and itraconazole (ITZ) were prepared according to the National Committee for Clinical Laboratory Standards (M38-A) in RPMI 1640 with glutamine broth medium, buffered to pH 7.0 with […] morpholinopropanesulphonic acid (MOPS). AMB stock solutions were prepared as a 100× series in 100% dimethyl sulfoxide (DMSO) and diluted in medium to a concentration range of 0.03125 to 16 μg/ml. Caspofungin, voriconazole and itraconazole were tested at a concentration range of 0.03125 to 1024 μg/ml, and Mycograb® (NeuTec Pharma plc) at a concentration range of 0.25 to 1024 μg/ml.
(§2) Clinical isolates of Aspergillus fumigatus (2), A. flavus (1), A. terreus (1) and A. niger (1) were obtained from the Department on Microbiology, Manchester Royal Infirmary, Manchester, UK.
(§3) An inoculum suspension was prepared in buffered RPMI with glutamine medium by probing colonies from a 7 day old Sabouraud plate. The suspension was adjusted to 0.09-0.11 (80% to 82% transmittance) for Aspergillus species, 0.15-0.17 (68% to 70% transmittance). The inoculum was diluted a further 1:2 when added to the antifungal agents in the assay (final inoculum (0.4×10^4 to 0.5×10^4). For AMB and Mycograb®, either alone or in combination, the endpoint was determined as the concentration to produce no growth (MIC-0). Microtitre plates were incubated at 37° C. without agitation for 48 hours for Aspergillus species. For caspofungin, voriconazole and itraconazole, either alone or in combination with Mycograb® antibody, the MIC endpoint was determined as the concentration resulting in a prominent decrease in turbidity (≧50% growth inhibition, MIC-2) compared to the growth control (Keele et al. 2001; Espinel-Ingroff 2003). The final inhibitory concentration (FIC) was calculated for each drug by dividing the MIC in the presence of the second drug by the MIC in its absence. For each combination, two fractions were produced which were summated to produce the fractional final inhibitory concentration. Synergy was defined by value of ≦0.5, indifference was defined by a value of >0.5 to <4.0, and antagonism was defined by a value of ≧4.0 (Matthews et al., 2003).

A. fumigatus CI2 = experiment: Broth microdilution (NCCLS M38-A) checkerboard assay, A. fumigatus CI2; format: cell-based, Aspergillus fumigatus
Protocol: as §1, §2, §3

A. niger = experiment: Broth microdilution (NCCLS M38-A) checkerboard assay, A. niger; format: cell-based
Protocol: as §1, §2, §3

A. flavus = experiment: Broth microdilution (NCCLS M38-A) checkerboard assay, A. flavus; format: cell-based
Protocol: as §1, §2, §3

A. terreus = experiment: Broth microdilution (NCCLS M38-A) checkerboard assay, A. terreus; format: cell-based
Protocol: as §1, §2, §3

Aspergillus species = experiment: Antifungal activity with Mycograb antibody, summary over the Aspergillus species examined; format: cell-based; settings: summary of Tables 1-4; agent combined with Mycograb antibody
Protocol: as §3

Candida strains = settings: wide variety of fungal strains (e.g. Candida species); WO 01/76627; cited from earlier work
[1] = agent alone, Table 1, no growth endpoint
[2] = amphotericin B and Mycograb combination
[3] = amphotericin B and Mycograb in combination

With `C[C@@H]1[C@H](O)[C@@H](C)/C=C/C=C/C=C/C=C/C=C/C=C/C=C/[C@H](O[C@@H]2O[C@H](C)[C@@H](O)[C@H](N)[C@@H]2O)C[C@@H]2O[C@](O)(C[C@@H](O)C[C@@H](O)[C@H](O)CC[C@@H](O)C[C@@H](O)CC(=O)O[C@H]1C)C[C@H](O)[C@H]2C(=O)O` [AMB, amphotericin B] the “MIC-0 of each agent, Alone” value (A. fumigatus; [1]) was 2 µg/mL, the FICI (A. fumigatus; [2]) was 0.5 and the Outcome (A. fumigatus; [2]) was “Indifferent (indifference was defined by a value of >0.5 to <4.0)”. For the same compound, the “MIC-0 of each agent, Combination” value (A. fumigatus; [3]) was 1 µg/mL, the “MIC-0 of each agent, Alone” value (A. fumigatus CI2; [1]) was 2 µg/mL and the FICI (A. fumigatus CI2; [2]) was 0.531. The Outcome (A. fumigatus CI2; [2]) was “Indifferent (indifference was defined by a value of >0.5 to <4.0)”, the “MIC-0 of each agent, Combination” value (A. fumigatus CI2; [3]) was 1 µg/mL and the “MIC-0 of each agent, Alone” value (A. niger; [1]) was 2 µg/mL. The FICI (A. niger; [2]) was 0.5, the Outcome (A. niger; [2]) was “Indifferent (indifference was defined by a value of >0.5 to <4.0)” and the “MIC-0 of each agent, Combination” value (A. niger; [3]) was 1 µg/mL. For the same compound, the “MIC-0 of each agent, Alone” value (A. flavus; [1]) was 4 µg/mL, the FICI (A. flavus; [2]) was 2 and the Outcome (A. flavus; [2]) was “Indifferent (indifference was defined by a value of >0.5 to <4.0)”. The “MIC-0 of each agent, Combination” value (A. flavus; [3]) was 4 µg/mL, the “MIC-0 of each agent, Alone” value (A. terreus; [1]) was 4 µg/mL and the FICI (A. terreus; [2]) was 2. For the same compound, the Outcome (A. terreus; [2]) was “Indifferent (indifference was defined by a value of >0.5 to <4.0)”, the “MIC-0 of each agent, Combination” value (A. terreus; [3]) was 4 µg/mL and the FIC (A. terreus; amphotericin B and Mycograb, MIC in combination divided by MIC alone) was 1 µg/mL. For the same compound, the “Antifungal activity / surprising effect when used in combination with Mycograb antibody” value (Aspergillus species) was “not observed” and the “Efficacy of antifungal agent in the presence of the antibody” value (Candida strains) was “significantly enhanced”.
